pIC50: −log10 of the molar value. “And” between values parts separate entries of the source, which are not always exact repeats. Identical values can stand only once. Blank lines part the entries; values can stand above or below the compound they belong to.
How the values were obtained:
Caspase-1 = target: T1, Caspase-1 (Homo sapiens, UniProt P29466); assay: Purified protease assay, fluorescence (Caspase-1); assay type: biochemical
T1 sequence (P29466 120-297 limits assumed): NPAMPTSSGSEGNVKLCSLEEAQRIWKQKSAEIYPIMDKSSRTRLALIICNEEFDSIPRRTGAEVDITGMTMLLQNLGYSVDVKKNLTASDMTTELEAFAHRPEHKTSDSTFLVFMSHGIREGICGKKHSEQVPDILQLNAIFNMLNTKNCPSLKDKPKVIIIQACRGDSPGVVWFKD
T1 sequence (P29466 317-404 limits assumed): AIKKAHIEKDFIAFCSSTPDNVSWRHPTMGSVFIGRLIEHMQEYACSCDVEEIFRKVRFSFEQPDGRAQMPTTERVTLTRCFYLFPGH
Source text: (§1) . Product was quantified by fluorescence (n=2) (FIG. 19). Ac-YVAD-CHO and GM-6001 served as positive controls and were used at empirically determined IC50 concentrations.

primary human monocytes = assay: IL-1β secretion and IL-1β species in LPS-induced primary human monocytes (ELISA, western blotting); assay type: cell-based
Protocol: Culture supernatants were analyzed for cytokine levels by ELISA (FIG. 16). […] Cell lysates were also analyzed for levels of IL-1β species by western blotting (FIG. 20).
Cells were treated with 1 mM ATP for 10 minutes. Culture supernatants were analyzed for IL-1β by ELISA (FIG. 18).

[1] = target: TNFα converting enzyme (TACE) (Homo sapiens, UniProt P78536); assay: Purified protease assay, fluorescence (TACE); assay type: biochemical
TNFα converting enzyme (TACE), sequence (P78536 215-824, species assumed): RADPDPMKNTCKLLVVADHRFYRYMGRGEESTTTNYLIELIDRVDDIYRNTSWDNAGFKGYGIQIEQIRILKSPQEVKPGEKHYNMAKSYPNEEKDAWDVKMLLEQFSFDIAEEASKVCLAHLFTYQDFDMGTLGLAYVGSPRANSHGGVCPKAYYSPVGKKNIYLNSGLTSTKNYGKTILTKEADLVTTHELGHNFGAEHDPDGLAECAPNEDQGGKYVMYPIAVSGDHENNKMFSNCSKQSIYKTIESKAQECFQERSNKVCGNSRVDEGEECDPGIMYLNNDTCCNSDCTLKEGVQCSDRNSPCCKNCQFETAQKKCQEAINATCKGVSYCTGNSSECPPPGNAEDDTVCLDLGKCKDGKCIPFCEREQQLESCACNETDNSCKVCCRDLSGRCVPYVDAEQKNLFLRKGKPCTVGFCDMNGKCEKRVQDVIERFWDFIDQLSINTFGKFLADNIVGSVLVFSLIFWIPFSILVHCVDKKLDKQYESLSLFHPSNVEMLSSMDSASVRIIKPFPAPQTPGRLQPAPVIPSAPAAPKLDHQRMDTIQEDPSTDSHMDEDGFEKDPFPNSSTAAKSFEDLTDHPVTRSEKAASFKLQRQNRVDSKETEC
Source text: as §1

[2] = system: oxazolone-induced topical inflammatory model in BALB/c mice; assay: Oxazolone-induced topical inflammatory model (ear swelling); assay type: in vivo
Protocol: To this end, we utilized two mouse models of allergic contact dermatitis, which are schematically illustrated in FIG. 12. […] Afterwards, the difference in the thickness of each of the two ears was compared to measure the extent of swelling (ie. inflammation).
As a further test, vehicle or the indicated compounds were administered topically in 40 μl doses 30 minutes before and 15 minutes after a second challenge (25 μl/ear of 1% oxazolone in acetone) (n=6). Ear thickness was measured 24 hours after the second challenge with a Dyer model micrometer gauge.

[3] = system: arachidonic acid-induced topical inflammatory model in BALE/c mice; assay: Arachidonic acid-induced topical inflammatory model (ear swelling); assay type: in vivo

- pIC50 (Caspase-1; positive control, read-out: empirically determined IC50 concentration, Caspase-1): 7.70
Structure (SMILES): CC(=O)N[C@@H](Cc1ccc(O)cc1)C(=O)N[C@H](C(=O)N[C@@H](C)C(=O)N[C@H](C=O)CC(=O)O)C(C)C [Ac-YVAD-CHO, reference compound]

Structure (SMILES): COc1ccc(Cn2ccc3ccc(C(=O)NO)cc32)cc1 [Compound 23, 1-(4-methoxy-phenylmethyl)-1H-indole-6-carboxylic acid hydroxyamide]
- pro-IL-1β levels in cell lysates, of control levels (densitometry) (primary human monocytes; 2 μM lane): 153%
- pro-IL-1β levels in cell lysates, of control levels (densitometry) (primary human monocytes; 10 μM lane): 142%
- direct inhibition of Caspase-1 protease (Caspase-1; 10 μM): does not Directly Inhibit
- direct inhibition of TACE protease ([1]; 10 μM): does not Directly Inhibit
- Ear Thickness Net ([2]; 1 mg/ear × 2, topical): 12.5 ± 1.8 0.01 mm
- Ear Thickness Net ([2]; 3 mg/ear × 2, topical): 7.3 ± 0.3 0.01 mm
- arachidonic acid-induced inflammation (in words) ([3]; 1 mg): reduced arachidonic acid-induced inflammation
- Ear thickness L. Ear, mean (X) ([3]; TOP, 1 mg/ear × 2): 20.0 ×0.01 mm
- Ear thickness Net, mean (X) ([3]; TOP, 1 mg/ear × 2): 9.7 ×0.01 mm
- Ear thickness R. Ear, mean (X) ([3]; TOP, 1 mg/ear × 2): 29.7 ×0.01 mm
- Ear thickness L. Ear, individual animals ([3]; TOP, 1 mg/ear × 2, N 1-6): 20 ×0.01 mm (4×) and 21 ×0.01 mm and 19 ×0.01 mm
- Ear thickness Net, individual animals ([3]; TOP, 1 mg/ear × 2, N 1-6): 9 ×0.01 mm (3×) and 11 ×0.01 mm and 8 ×0.01 mm and 12 ×0.01 mm
- Ear thickness R. Ear, individual animals ([3]; TOP, 1 mg/ear × 2, N 1-6): 29 ×0.01 mm (2×) and 32 ×0.01 mm (2×) and 28 ×0.01 mm (2×)
- Ear thickness L. Ear, mean (X) ([3]; TOP, 3 mg/ear × 2): 20.5 ×0.01 mm
- Ear thickness Net, mean (X) ([3]; TOP, 3 mg/ear × 2): 10.3 ×0.01 mm
- Ear thickness R. Ear, mean (X) ([3]; TOP, 3 mg/ear × 2): 30.8 ×0.01 mm
- Ear thickness L. Ear, individual animals ([3]; TOP, 3 mg/ear × 2, N 1-6): 21 ×0.01 mm (4×) and 19 ×0.01 mm and 20 ×0.01 mm
- Ear thickness Net, individual animals ([3]; TOP, 3 mg/ear × 2, N 1-6): 6 ×0.01 mm (2×) and 11 ×0.01 mm and 16 ×0.01 mm (2×) and 7 ×0.01 mm
- Ear thickness R. Ear, individual animals ([3]; TOP, 3 mg/ear × 2, N 1-6): 27 ×0.01 mm (2×) and 32 ×0.01 mm and 35 ×0.01 mm and 36 ×0.01 mm and 28 ×0.01 mm

- pIC50 [1]: 7.22
Structure (SMILES): CNC(=O)[C@H](Cc1c[nH]c2ccccc12)NC(=O)[C@@H](CC(=O)NO)CC(C)C [GM-6001, reference compound]

Structure (SMILES): COc1ccc2c(c1)c(CC(=O)O)c(C)n2C(=O)c1ccc(Cl)cc1 [Indomethacin, reference compound]
- Ear Thickness Net ([2]; 0.3 mg/ear × 2, topical): 9.7 ± 1.0 0.01 mm
- % Inhibition ([2]; 0.3 mg/ear × 2, topical, relative to vehicle-treated control, ≧30% considered significant): (40) %
- % Inhibition ([3]; TOP, 3 mg/ear × 2): (62) %
- Ear thickness L. Ear, mean (X) ([3]; TOP, 3 mg/ear × 2): 20.2 ×0.01 mm
- Ear thickness Net, mean (X) ([3]; TOP, 3 mg/ear × 2): 5.5 ×0.01 mm
- Ear thickness R. Ear, mean (X) ([3]; TOP, 3 mg/ear × 2): 25.7 ×0.01 mm
- Ear thickness L. Ear, individual animals ([3]; TOP, 3 mg/ear × 2, N 1-6): 19 ×0.01 mm and 21 ×0.01 mm (2×) and 20 ×0.01 mm (3×)
- Ear thickness Net, individual animals ([3]; TOP, 3 mg/ear × 2, N 1-6): 7 ×0.01 mm and 4 ×0.01 mm and 6 ×0.01 mm (2×) and 5 ×0.01 mm (2×)
- Ear thickness R. Ear, individual animals ([3]; TOP, 3 mg/ear × 2, N 1-6): 26 ×0.01 mm (4×) and 25 ×0.01 mm (2×)
